How the values were obtained:
[1] = biological target: T1, DNMT1 (amino acids 621–1616) (Homo sapiens, UniProt P26358); test: Differential scanning fluorimetry (DSF) assay; format: binding; conditions: 100 µM compound; for Tm: 2 µM DNMT1, no DNA or SAM, DMSO 46.5 ± 0.1; for ∆Tm: shift versus DMSO control
T1 construct: RFTS-lacking DNMT1, amino acids 621–1616; made in house
Method: DSF [32] was used to assess the ability of the validated inhibitors to bind directly to DNMT1 in the absence of DNA and SAM and alter the observed melting temperature (Tm). Assays (25 µl) were conducted in triplicate in a Bio-Rad C1000 Thermal Cycler – CFX Real-Time System using the FRET channel and contained 50 mM HEPES pH 7.5, 150 mM NaCl, 2 µM DNMT1 (amino acids 621–1616), 5X Sypro Orange (Invitrogen Molecular Probes), 100 µM compound, and 1% DMSO. A DMSO control assay in the absence of compounds was also examined. Temperature was increased from 25 to 95°C by 0.5°C per minute. Fluorescence traces were exported and analyzed by fitting to the Boltzmann equation in Prism to determine the Tm.

CD-DNMT3A/DNMT3L complex = biological target: T2, CD-DNMT3A/DNMT3L complex (Homo sapiens, UniProt Q9Y6K1); test: Compound selectivity, endonuclease-coupled DNA methylation assay; format: biochemical; conditions: 20 µM inhibitor; for Percent activity, DNMT3A/DNMT3L Complex: 20 nM methyltransferase, 0.25 mM SAM
T2 construct: CD-DNMT3A; amino acids 611–912; His tag (N); made in house; host or cells: Rosetta 2(DE3)pLysS (E. coli) for CD-DNMT3A
T2 sequence (Q9Y6K1 611-912): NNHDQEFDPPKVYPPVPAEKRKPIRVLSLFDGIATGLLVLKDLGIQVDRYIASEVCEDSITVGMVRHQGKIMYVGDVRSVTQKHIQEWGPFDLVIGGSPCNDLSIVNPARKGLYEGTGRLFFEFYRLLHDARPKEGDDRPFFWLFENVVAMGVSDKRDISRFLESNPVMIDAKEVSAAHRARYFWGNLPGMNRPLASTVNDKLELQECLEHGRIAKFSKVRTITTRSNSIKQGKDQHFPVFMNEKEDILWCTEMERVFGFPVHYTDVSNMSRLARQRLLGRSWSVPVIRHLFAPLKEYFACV
T2 sequence (Q9UJW3 whole entry partner, the tested form may be a part): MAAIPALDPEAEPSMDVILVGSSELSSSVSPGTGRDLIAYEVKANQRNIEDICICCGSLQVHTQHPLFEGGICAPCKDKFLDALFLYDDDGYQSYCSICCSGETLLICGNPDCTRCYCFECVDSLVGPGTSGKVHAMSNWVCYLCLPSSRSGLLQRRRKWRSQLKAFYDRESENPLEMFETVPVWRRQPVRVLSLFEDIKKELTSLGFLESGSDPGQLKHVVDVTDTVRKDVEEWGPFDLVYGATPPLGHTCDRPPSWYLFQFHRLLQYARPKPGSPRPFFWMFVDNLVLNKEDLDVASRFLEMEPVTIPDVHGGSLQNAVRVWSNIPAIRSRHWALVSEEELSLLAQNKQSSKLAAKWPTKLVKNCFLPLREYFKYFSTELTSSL
Method: (§1) Triplicate assays (100 µl) containing 0.25 mM SAM, 0.2 µM oligonucleotide 8006, 0.8 U GlaI, 20 nM methyltransferase, 20 µM inhibitor and 1% DMSO were conducted in 96 well plates. Following enzyme addition, assay plates were incubated at 37°C for 75 min and fluorescence was measured in a BioTek Neo plate reader. A control containing only GlaI was subtracted from each assay. […] Percent activity was determined by comparing product formation to a DMSO containing control assay.

[2] = biological target: T3, RFTS-containing DNMT1 (amino acids 351–1616) (Homo sapiens, UniProt P26358); test: as above; format: biochemical; conditions: 20 µM inhibitor, 20 nM methyltransferase, 0.25 mM SAM
T3 construct: RFTS-containing DNMT1, amino acids 351–1616; made in house
T3 sequence (P26358 351-1616): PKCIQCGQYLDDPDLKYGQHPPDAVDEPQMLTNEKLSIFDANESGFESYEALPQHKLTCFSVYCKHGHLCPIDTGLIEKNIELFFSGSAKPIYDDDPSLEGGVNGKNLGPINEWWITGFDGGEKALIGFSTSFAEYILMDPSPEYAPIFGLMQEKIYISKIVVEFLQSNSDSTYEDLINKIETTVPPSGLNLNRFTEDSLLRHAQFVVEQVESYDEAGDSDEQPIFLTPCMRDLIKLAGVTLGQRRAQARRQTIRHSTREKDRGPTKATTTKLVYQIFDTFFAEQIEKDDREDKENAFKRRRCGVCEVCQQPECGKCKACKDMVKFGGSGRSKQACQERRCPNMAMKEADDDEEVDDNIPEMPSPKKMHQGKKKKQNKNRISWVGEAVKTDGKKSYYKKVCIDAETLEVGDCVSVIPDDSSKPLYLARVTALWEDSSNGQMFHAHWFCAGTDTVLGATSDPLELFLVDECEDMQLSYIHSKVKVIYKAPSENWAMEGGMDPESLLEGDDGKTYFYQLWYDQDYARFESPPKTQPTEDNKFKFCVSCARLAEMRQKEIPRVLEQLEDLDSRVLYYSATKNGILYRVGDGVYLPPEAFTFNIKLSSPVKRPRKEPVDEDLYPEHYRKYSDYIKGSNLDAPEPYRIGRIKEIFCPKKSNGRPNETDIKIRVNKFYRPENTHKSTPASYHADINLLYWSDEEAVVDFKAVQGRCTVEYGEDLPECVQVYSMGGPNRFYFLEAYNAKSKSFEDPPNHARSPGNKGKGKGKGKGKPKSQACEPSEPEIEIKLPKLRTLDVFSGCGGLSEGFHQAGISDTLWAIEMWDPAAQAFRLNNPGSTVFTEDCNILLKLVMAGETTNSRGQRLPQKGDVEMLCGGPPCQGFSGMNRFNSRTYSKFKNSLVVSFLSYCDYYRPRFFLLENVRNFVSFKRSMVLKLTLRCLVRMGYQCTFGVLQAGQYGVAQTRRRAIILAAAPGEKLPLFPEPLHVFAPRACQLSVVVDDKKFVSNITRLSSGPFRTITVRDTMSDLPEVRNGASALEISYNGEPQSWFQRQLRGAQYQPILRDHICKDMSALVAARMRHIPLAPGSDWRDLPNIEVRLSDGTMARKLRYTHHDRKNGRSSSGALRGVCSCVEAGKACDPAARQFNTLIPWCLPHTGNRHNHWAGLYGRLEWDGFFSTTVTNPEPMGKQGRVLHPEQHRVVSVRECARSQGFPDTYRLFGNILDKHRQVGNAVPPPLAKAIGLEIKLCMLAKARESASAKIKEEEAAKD
Method: as §1

[3] = biological target: T1, DNMT1 (amino acids 621–1616); test: Concentration-dependence (IC50), endonuclease-coupled DNA methylation assay; format: biochemical; conditions: for IC50: 10 µM SAM, 20 nM oligonucleotide 8006, 2 nM DNMT1, 95% confidence interval in brackets
Method: IC50 values for each validated direct inhibitor were determined under identical assay conditions (10 µM SAM and 20 nM oligonucleotide 8006) using the endonuclease-coupled DNA methylation assay in triplicate (80 µl) in a 96 well format. Assays contained 0.8 U GlaI, 2 nM DNMT1 (amino acids 621–1616) and 0.94% DMSO with inhibitor concentration varied from 0 to 10 µM. FAM fluorescence was measured in a Biotek Neo plate reader over the course of 45 minutes. A control containing GlaI in the absence of DNMT1 was subtracted from each assay condition. Corrected assay traces were fitted in Prism and percent activity was determined by comparing to a DMSO containing control. IC50 values were determined by fitting the percent activity data using a unity Hill slope in Prism.

HepG2 cells = system: HepG2 cells; design: method as in PMID 22939515; conditions: cited from earlier work
DNMT1 = conditions: cited from earlier work
[4] = system: MCF-7 breast cancer cells; conditions: cited from earlier work
[5] = system: Rgs6−/− mouse embryonic fibroblasts; design: method as in PMID 23995786; conditions: murine Rgs6−/− mouse embryonic fibroblasts; cited from earlier work

T1 sequence (P26358 621-1616): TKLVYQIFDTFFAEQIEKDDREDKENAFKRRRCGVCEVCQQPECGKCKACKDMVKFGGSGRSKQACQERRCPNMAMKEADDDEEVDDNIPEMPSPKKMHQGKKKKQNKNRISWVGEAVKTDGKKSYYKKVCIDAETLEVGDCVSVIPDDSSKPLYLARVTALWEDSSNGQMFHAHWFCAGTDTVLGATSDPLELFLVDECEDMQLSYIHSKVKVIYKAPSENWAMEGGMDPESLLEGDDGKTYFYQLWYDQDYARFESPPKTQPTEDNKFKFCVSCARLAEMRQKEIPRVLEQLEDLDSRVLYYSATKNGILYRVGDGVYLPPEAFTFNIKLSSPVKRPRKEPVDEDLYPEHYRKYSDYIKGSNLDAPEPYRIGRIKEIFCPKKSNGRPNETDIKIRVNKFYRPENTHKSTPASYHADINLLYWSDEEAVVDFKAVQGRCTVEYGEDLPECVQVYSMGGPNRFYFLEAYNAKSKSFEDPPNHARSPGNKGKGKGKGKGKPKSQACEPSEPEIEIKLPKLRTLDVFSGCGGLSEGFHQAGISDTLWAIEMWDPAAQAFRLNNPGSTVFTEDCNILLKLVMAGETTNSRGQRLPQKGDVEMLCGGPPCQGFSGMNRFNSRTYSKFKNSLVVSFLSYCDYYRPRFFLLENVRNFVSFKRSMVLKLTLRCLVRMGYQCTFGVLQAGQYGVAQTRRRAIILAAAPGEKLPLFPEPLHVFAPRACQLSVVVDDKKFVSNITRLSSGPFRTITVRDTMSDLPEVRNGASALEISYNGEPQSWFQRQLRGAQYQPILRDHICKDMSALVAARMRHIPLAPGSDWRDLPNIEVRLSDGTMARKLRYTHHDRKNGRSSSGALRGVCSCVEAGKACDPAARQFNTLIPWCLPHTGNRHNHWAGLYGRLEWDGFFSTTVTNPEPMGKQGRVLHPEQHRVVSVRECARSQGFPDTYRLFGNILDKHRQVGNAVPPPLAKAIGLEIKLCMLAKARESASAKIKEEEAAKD

SMILES	Tm [1]	∆Tm [1]	Percent activity, DNMT3A/DNMT3L Complex (CD-DNMT3A/DNMT3L complex)	Percent activity, RFTS-containing Dnmt1 [2]	selectivity for DNMT1 versus DNMT3A/DNMT3L (in words) (CD-DNMT3A/DNMT3L complex)	IC50 [3]	levels of DNA methylation (HepG2 cells)	potency relative to alizarin (cmpd 26) ([3]; more potent than alizarin)	selectivity for DNMT1 over DNMT3A/DNMT3L (CD-DNMT3A/DNMT3L complex)	mechanism of inhibition (DNMT1)	expression of methylation-silenced genes [4]	DNMT1-dependent oncogenic transformation and apoptosis [5]
O=C(O)c1cc(O)c2c(c1)[C@@H]([C@@H]1c3cc(C(=O)O)cc(O)c3C(=O)c3c(O[C@H]4O[C@H](CO)[C@@H](O)[C@H](O)[C@H]4O)cccc31)c1cccc(O[C@H]3O[C@H](CO)[C@@H](O)[C@H](O)[C@H]3O)c1C2=O [Cmpd 36]	47.4 ± 0.1 ºC	+0.9 ºC	83±15%	30±12%								
O=c1c(O)c(-c2ccc(O)c(O)c2)oc2c(O)c(O)cc(O)c12 [Cmpd 33]	64.4 ± 0.2 ºC	+17.9 ºC	74±13%	38±13%								
CSc1nc2cc(Cl)c(Oc3cccc(Cl)c3Cl)cc2[nH]1 [Cmpd 29, triclabendazole]	48.3 ± 0.1 ºC	+1.8 ºC	110±5%		exhibited selectivity							
CC1/C=C/C=C/C=C/C=C/C=C/C=C/C=C/C(O[C@@H]2O[C@H](C)[C@H](O)[C@@H](O)[C@@H]2N)CC(O)C(C(=O)O)C(O)CC(=O)CC(O)CC(O)CC(O)CC(=O)CCCC(=O)CC(=O)OC1C(C)CC(C)C(O)CC(=O)c1ccc(N)cc1 (stereo partly drawn) [Cmpd 24]	47.5 ± 0.1 ºC	+1.0 ºC	49±16%			0.4 µM						
O=C(O)c1cc(O)c2c(c1)[C@@H]([C@H]1c3cc(C(=O)O)cc(O)c3C(=O)c3c(O[C@H]4O[C@H](CO)[C@@H](O)[C@H](O)[C@H]4O)cccc31)c1cccc(O[C@H]3O[C@H](CO)[C@@H](O)[C@H](O)[C@H]3O)c1C2=O [Cmpd 22]	47.5 ± 0.1 ºC	+1.0 ºC	88±11%	40±10%		0.47 µM						
Oc1cc(Cl)ccc1Oc1ccc(Cl)cc1Cl [Cmpd 13, triclosan]	47.5 ± 0.1 ºC	+1.0 ºC	23±10%	25±8%	nonselective		reduced the levels of DNA methylation					
O=C1c2ccccc2C(=O)c2c1ccc(O)c2O [Cmpd 26, alizarin]	48.5 ± 0.1 ºC	+2.0 ºC	49±12%	51±10%	nonselective							
O=C(O)C(S)C(S)C(=O)O (stereo not drawn) [Cmpd 51]	49.0 ± 0.1 ºC	+2.5 ºC	61±12%	24±11%								
CC(=O)NCCc1ccc(O)c(-c2c(O)c(O)c3c(c2O)C(=O)c2c(cc(O)c(C(=O)O)c2C(=O)O)C3=O)c1 [Cmpd 40, Laccaic acid A]	48.5 ± 0.1 ºC	+2.0 ºC	80±10%	21±9%				~5 fold	~4 fold	DNA-competitive inhibitor	reactivates expression of a set of methylation-silenced genes	reverses DNMT1-dependent oncogenic transformation and apoptosis

Reference: paper PMC3827244, “An Ultrasensitive High Throughput Screen for DNA Methyltransferase 1-Targeted Molecular Probes” (PLoS ONE, 2013)
